{"source": "ChEMBL document CHEMBL2074318", "about": "“Expression, transport properties, and chromosomal location of organic anion transporter subtype 3” (Am J Physiol Gastrointest Liver Physiol, 2000)", "molecules": {"B1": {"name": "Solute carrier organic anion transporter family member 1A5 (Rattus norvegicus) (protein)", "chain": "MGETEKRVATHEVRCFSKIKMFLLALTWAYVSKSLSGIYMNTMLTQIERQFDIPTSIVGFINGSFEIGNLLLIIFVSYFGTKLHRPIMIGVGCVIMGLGCFLMSLPHFLMGRYEYETTISPTSNLSSNSFLCMENRSQTLKPTQDPAECIKEMKSLMWIYVLVGNIIRGIGETPIMPLGISYIEDFAKSENSPLYIGILETGKVFGPIVGLLLGSFCASIYVDTGSVNTDDLTITPTDTRWVGAWWIGFLICAGVNILSSIPFFFFPKTLPKEGLQDDVDGTNNDKEEKHREKAKEENRGITKDFLPFMKSLSCNPIYMLLILTSVLQINAFINMFTFLPKYLEQQYGKSTAEVVLLIGVYNLPPICIGYLLIGFIMKKFKITVKKAAYMAFCLSLFEYLLYFLHFMITCDNFPVAGLTASYEGVHHPLYVENKVLADCNRGCSCSTNSWDPVCGDNGLAYMSACLAGCKKSVGTGTNMVFQNCSCIRSSGNSSAVLGLCKKGPECANKLQYFLIMSVIGSFIYSITAIPGYMVLLRCIKPEEKSLGIGLHAFCTRVFAGIPAPIYFGALIDRTCLHWGTLKCGEPGACRMYNINNFRRIYLVLPAALRGSSYLPALFILILMRKFQFPGEIDSSETELAEMKITVKKSECTDVHGSPQVENDGELKTRL"}}, "type_in_all_cases": "functional, cell-based", "key": {"[1]": {"target": "T1, Solute carrier organic anion transporter family member 1A5 (Rattus norvegicus, UniProt O88397)", "T1 sequence (O88397 whole entry)": "B1 chain", "experiment": "TP_TRANSPORTER: inhibition of Taurocholate uptake (Taurocholate: 10 uM, DIDS: 1000 uM) in Oatp3-expressing MDCK cells", "settings": "dog"}, "[2]": {"target": "T1, Solute carrier organic anion transporter family member 1A5", "experiment": "TP_TRANSPORTER: uptake in Oatp3-expressing COS cells", "settings": "monkey"}, "[3]": {"target": "T2, Ileal sodium/bile acid cotransporter (Rattus norvegicus, UniProt Q62633)", "T2 sequence (Q62633 whole entry)": "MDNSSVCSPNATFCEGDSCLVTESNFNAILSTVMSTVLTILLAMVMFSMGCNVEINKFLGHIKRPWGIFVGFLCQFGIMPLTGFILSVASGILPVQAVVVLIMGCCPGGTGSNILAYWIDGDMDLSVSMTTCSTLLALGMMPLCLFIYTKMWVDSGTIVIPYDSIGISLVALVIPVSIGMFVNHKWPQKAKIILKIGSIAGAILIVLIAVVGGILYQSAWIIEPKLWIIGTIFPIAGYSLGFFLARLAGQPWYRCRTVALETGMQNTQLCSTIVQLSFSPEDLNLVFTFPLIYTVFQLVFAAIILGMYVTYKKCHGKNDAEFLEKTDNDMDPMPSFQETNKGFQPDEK", "experiment": "TP_TRANSPORTER: uptake in ASBT-expressing COS cells", "settings": "monkey"}, "[4]": {"substrate": "C[C@H](CCC(=O)NCCS(=O)(=O)O)[C@H]1CC[C@H]2[C@@H]3[C@@H](O)C[C@@H]4C[C@H](O)CC[C@]4(C)[C@H]3CC[C@]12C", "experiment": "(§1) TP_TRANSPORTER: uptake in Oatp3-expressing MDCK cells"}, "[5]": {"substrate": "C[C@H](CCC(=O)NCC(=O)O)[C@H]1CC[C@H]2[C@@H]3[C@H](O)C[C@@H]4C[C@H](O)CC[C@]4(C)[C@H]3C[C@H](O)[C@]12C", "experiment": "as §1"}, "[6]": {"substrate": "C[C@H](CCC(=O)NCCS(=O)(=O)O)[C@H]1CC[C@H]2[C@@H]3CC[C@@H]4C[C@H](O)CC[C@]4(C)[C@H]3C[C@H](O)[C@]12C", "experiment": "as §1"}, "[7]": {"substrate": "C[C@H](CCC(=O)NCC(=O)O)[C@H]1CC[C@H]2[C@@H]3[C@H](O)C[C@@H]4C[C@H](O)CC[C@]4(C)[C@H]3CC[C@]12C", "experiment": "as §1"}, "[8]": {"substrate": "C[C@H](CCC(=O)NCCS(=O)(=O)O)[C@H]1CC[C@H]2[C@@H]3[C@H](O)C[C@@H]4C[C@H](O)CC[C@]4(C)[C@H]3CC[C@]12C", "experiment": "as §1"}, "[9]": {"substrate": "C[C@H](CCC(=O)NCC(=O)O)[C@H]1CC[C@H]2[C@@H]3[C@@H](O)C[C@@H]4C[C@H](O)CC[C@]4(C)[C@H]3CC[C@]12C", "experiment": "as §1"}, "[10]": {"substrate": "C[C@H](CCC(=O)NCC(=O)O)[C@H]1CC[C@H]2[C@@H]3CC[C@@H]4C[C@H](O)CC[C@]4(C)[C@H]3C[C@H](O)[C@]12C", "experiment": "as §1"}}}
{"molecule": "O=S(=O)(O)c1cc(N=C=S)ccc1/C=C/c1ccc(NC=S)cc1S(=O)(=O)O", "values": [{"measurement": "Activity", "setting": "[1]", "value": "inhibitor [(at a rough estimate) 15 % of control]"}]}
{"molecule": "C[C@H](CCC(=O)NCC(=O)O)[C@H]1CC[C@H]2[C@@H]3[C@H](O)C[C@@H]4C[C@H](O)CC[C@]4(C)[C@H]3CC[C@]12C", "note": "[GLYCOCHENODEOXYCHOLATE]", "values": [{"measurement": "Activity", "setting": "[2]", "value": "substrate [+]"}, {"measurement": "Activity", "setting": "[3]", "value": "substrate [+]"}]}
{"molecule": "C[C@H](CCC(=O)NCC(=O)O)[C@H]1CC[C@H]2[C@@H]3[C@H](O)C[C@@H]4C[C@H](O)CC[C@]4(C)[C@H]3C[C@H](O)[C@]12C", "note": "[GLYCOCHOLIC ACID]", "values": [{"measurement": "Activity", "setting": "[2]", "value": "substrate [+]"}, {"measurement": "Activity", "setting": "[3]", "value": "substrate [+]"}]}
{"molecule": "C[C@H](CCC(=O)NCC(=O)O)[C@H]1CC[C@H]2[C@@H]3CC[C@@H]4C[C@H](O)CC[C@]4(C)[C@H]3C[C@H](O)[C@]12C", "note": "[GLYCODEOXYCHOLATE]", "values": [{"measurement": "Activity", "setting": "[2]", "value": "substrate [+]"}, {"measurement": "Activity", "setting": "[3]", "value": "substrate [+]"}]}
{"molecule": "C[C@H](CCC(=O)NCC(=O)O)[C@H]1CC[C@H]2[C@@H]3[C@@H](O)C[C@@H]4C[C@H](O)CC[C@]4(C)[C@H]3CC[C@]12C", "note": "[GLYCOURSODEOXYCHOLIC ACID]", "values": [{"measurement": "Activity", "setting": "[2]", "value": "substrate [+]"}, {"measurement": "Activity", "setting": "[3]", "value": "substrate [+]"}]}
{"molecule": "C[C@H](CCC(=O)NCCS(=O)(=O)O)[C@H]1CC[C@H]2[C@@H]3[C@H](O)C[C@@H]4C[C@H](O)CC[C@]4(C)[C@H]3CC[C@]12C", "note": "[TAUROCHENODEOXYCHOLATE]", "values": [{"measurement": "Activity", "setting": "[2]", "value": "substrate [+]"}, {"measurement": "Activity", "setting": "[3]", "value": "substrate [+]"}]}
{"molecule": "C[C@H](CCC(=O)NCCS(=O)(=O)O)[C@H]1CC[C@H]2[C@@H]3CC[C@@H]4C[C@H](O)CC[C@]4(C)[C@H]3C[C@H](O)[C@]12C", "note": "[TAURODEOXYCHOLIC ACID]", "values": [{"measurement": "Activity", "setting": "[2]", "value": "substrate [+]"}, {"measurement": "Activity", "setting": "[3]", "value": "substrate [+]"}]}
{"molecule": "C[C@H](CCC(=O)NCCS(=O)(=O)O)[C@H]1CC[C@H]2[C@@H]3[C@@H](O)C[C@@H]4C[C@H](O)CC[C@]4(C)[C@H]3CC[C@]12C", "note": "[TAURURSODIOL]", "values": [{"measurement": "Activity", "setting": "[2]", "value": "substrate [+]"}, {"measurement": "Activity", "setting": "[3]", "value": "substrate [+]"}]}
{"molecule": "B1", "values": [{"measurement": "Km", "setting": "[4]", "value": 6.6, "unit": "µM"}, {"measurement": "Km", "setting": "[5]", "value": 15.4, "unit": "µM"}, {"measurement": "Km", "setting": "[6]", "value": 5.8, "unit": "µM"}, {"measurement": "Km", "setting": "[7]", "value": 5.6, "unit": "µM"}, {"measurement": "Km", "setting": "[8]", "value": 7, "unit": "µM"}, {"measurement": "Km", "setting": "[9]", "value": 5.3, "unit": "µM"}, {"measurement": "Km", "setting": "[10]", "value": 4.3, "unit": "µM"}]}
